From US20130295017A1, “METHODS FOR SCREENING ANTIBIOTIC COMPOUNDS” (priority 2010, published 2013)

Test system: S. aureus strain ALC6094
Assay: Murine model of subcutaneous infection (abscess), IPTG induction of MazFsa
Format: in vivo, Balb/C female mice
Details: for Log10 CFU/abscess: sacrifice day 4, n = 9
Source text: A murine model of subcutaneous infections (abscess) was used. Such models are well-established as methods to screen for in vivo activity to affect infection processes (Tamber et al. 2010. Infect. Immun. 78:3637-3646).
In the present experiments, a bacterial strain ALC6094, which is a derivative of S. aureus strain Newman was used. This strain contains a chromosomal copy of the T7 polymerase gene and the plasmid pG164::mazFsa, which is a shuttle plasmid with an IPTG-inducible T7 promoter driving MazFsa expression. Mice were challenged with 2×10^7 CFU of bacteria via subcutaneous (s.q.) injection and mixed with 1 mM IPTG immediately before injection. After injection, half of the IPTG-treated animals received two saline injections daily while the remaining half were injected with 1 mM IPTG (s.q.) daily for 2 days. All animals were sacrificed on day 4, including untreated control groups receiving no IPTG. […] Thus, drugs that disrupt the MazEF complex would be novel compounds for use in treating S. aureus bacterial infections.
Balb/C female mice (20-22 grams) were used to assess the utility of disrupting MazEFsa activity in vivo as a potential method for testing for drug efficacy. The mice were infected subcutaneously with 200 μl of 1.5×10^8 CFU/ml of bacteria. The bacterial strain used was ALC6094, which is a derivative of S. aureus strain Newman containing a chromosomal copy of the T7 polymerase gene and the plasmid pG164::mazFsa, which is a shuttle plasmid with an IPTG-inducible T7 promoter driving MazFsa expression. Control mice were infected with the bacteria but received no further injections. Two treatment groups were tested: 1) mice injected with ALC6094 that was mixed with IPTG immediately before injection (1 ml of a 5 mM solution of IPTG); and 2) mice injected with ALC6094 mixed with IPTG and then given daily IPTG injections for two subsequent days. Animal were sacrificed on day 4 after injection. Only mice receiving saline control developed visible abscesses by day 3, while those animals receiving IPTG had visible erythematous injection sites.

## CC(C)S[C@@H]1O[C@H](CO)[C@H](O)[C@H](O)[C@H]1O [IPTG]
ALC6094 mixed with IPTG immediately before s.q. injection
  Log10 CFU/abscess: 6.57 ± 0.83 Log10 CFU/abscess
ALC6094 mixed with IPTG plus daily IPTG injections for two subsequent days
  Log10 CFU/abscess: 6.59 ± 0.95 Log10 CFU/abscess
Mice receiving IPTG induction for MazFsa
  abscess size vs. no IPTG controls: smaller abscess sizes
